One test deals with HT-29. The experiment in a line: Cell Titer-Glo cell viability: HT-29. The conditions noted are these: Homo sapiens, HT-29, 72 h, 72 h. It is filed as cell-based. On the procedure:
(§1) This assay quantitates the ATP present in order to determine the number of viable cells in culture. Briefly, the compounds were incubated with the cells for 72 h, followed by cell lysis. The resulting luminescent signal is proportional to the amount of ATP present and, therefore, directly proportional to the number of cells present in culture.
(§2) Compound nos. […] These cell lines are derived from human lung carcinoma, colon adenocarcinoma, colon adenocarcinoma, colon carcinoma, acute promyelocytic leukemia, colon adenocarcinoma, colon adenocarcinoma (from metastatic site lymph node), respectively.
(§3) Compounds 2b, 5, 6b and 10a were tested along with derivatives in viability assays as described above by Caliper LifeSciences Systems (Hanover, Md.), in A549, HCT-15, HCT-116, MCF-7, MDA-MB-231, OVCAR3, T47D, COLO205, HT-29, BT-20, HCC1187, HL-60, MDA-MB-175, SW-620, and UACC812 cells.
A general note: In ATP-based viability assays light output follows the ATP content of the culture.

Another test deals with SW-620. Description: Cell Titer-Glo cell viability: SW-620. The conditions noted are these: Homo sapiens; SW-620, metastatic colorectal cancer; 72 h. It is filed as cell-based. On the procedure:
as §1, §2, §3

A further test deals with LNCaP. The experiment in a line: Cell Titer-Glo cell viability: LNCaP. The conditions noted are these: Homo sapiens, prostate cancer, 72 h. It counts as cell-based. The protocol: (§4) Compound nos. […] This panel of cell lines includes an ER− breast carcinoma, primary breast ductal carcinoma, prostate adenocarcinoma, mammary adenocarcinoma, mammary ductal carcinoma, mammary ductal carcinoma, ovary adenocarcinoma, ER+ breast carcinoma, ER-HER2+ mammary ductal carcinoma and an ER+ mammary ductal carcinoma, respectively.
as §1

The subject of another test is HCC 1187. Description: Cell Titer-Glo cell viability: HCC 1187. It counts as cell-based. The conditions noted are these: Homo sapiens; HCC1187, breast cancer; 72 h. On the procedure:
as §4, §1, §3

For test [1], the system named is Akt phosphorylation induced by IGF-1R in HT-29 cells. Description: Western blot analysis of Akt phosphorylation induced by IGF-1R. The conditions noted are these: then IGF-1 10 ng/mL 10 min, HT-29. It counts as cell-based, Human. Background: In western blotting, separated proteins are transferred to a membrane and probed.
A further test deals with A549. Description: Cell Titer-Glo cell viability: A549. It counts as cell-based. The conditions noted are these: Homo sapiens; A549, non-small lung carcinoma; 72 h. The protocol: as §1, §2, §3
The subject of another test is ZR-75-1. Description: Cell Titer-Glo cell viability: ZR-75-1. It is filed as cell-based. The conditions noted are these: Homo sapiens; ZR-75-1, breast cancer; 72 h. The protocol: as §4, §1
The test system of a further test is BT-20. The experiment in a line: Cell Titer-Glo cell viability: BT-20. It is filed as cell-based. The conditions noted are these: Homo sapiens, BT-20; BT20, breast cancer; 72 h. On the procedure: as §4, §1, §3
In a further test the test system is HCT-15. The experiment in a line: Cell Titer-Glo cell viability: HCT-15. The conditions noted are these: Homo sapiens, HCT-15; HCT15, colon carcinoma; 72 h. It is filed as cell-based. On the procedure: as §1, §2, §3
A further test relates to UACC 812. Description: Cell Titer-Glo cell viability: UACC 812. It is filed as cell-based. The conditions noted are these: Homo sapiens, UACC-812; UACC812, breast cancer; 72 h. On the procedure:
as §4, §1, §3
The inhibitory effects of Compound 8a were tested in two cell lines.

The subject of a further test is MCF-7. Description: Cell Titer-Glo cell viability: MCF-7. It is filed as cell-based. The conditions noted are these: Homo sapiens; MCF7, breast cancer; 72 h. The protocol:
as §4, §1, §3

The next test has as its system T47D. Description: Cell Titer-Glo cell viability: T47D. It counts as cell-based. The conditions noted are these: Homo sapiens, breast cancer, 72 h. On the procedure:
as §4, §1, §3

A further test deals with COLO 205. Description: Cell Titer-Glo cell viability: COLO 205. It is filed as cell-based. The conditions noted are these: Homo sapiens; COLO-205, colon adenocarcinoma; 72 h. On the procedure:
as §1, §2, §3

The test system of the next test is HCT-116. The experiment in a line: Cell Titer-Glo cell viability: HCT-116. It is filed as cell-based. The conditions noted are these: Homo sapiens, HCT116, colon carcinoma, 72 h. On the procedure: as §1, §2, §3
The test system of a further test is HL-60. Description: Cell Titer-Glo cell viability: HL-60. The conditions noted are these: 72 h. It counts as cell-based, human. On the procedure:
as §1, §2, §3

For the next test, the system named is OVCAR-3. The experiment in a line: Cell Titer-Glo cell viability: OVCAR-3. It is filed as cell-based. The conditions noted are these: Homo sapiens, OVCAR3, ovarian cancer, 72 h. On the procedure: as §4, §1, §3

Consider one molecule from US9422267B2, “Fused pyrimidine compounds and use thereof” (Medivation Technologies, Inc., priority 2012, dated 2016).

For `C[C@@]1(C(=O)Nc2ccc(F)nc2)CCCN1c1nc(Nc2cc(C3CC3)n[nH]2)c2cccn2n1` [BMS-754807, (S)-1-(4-(5-cyclopropyl-1H-pyrazol-3-ylamino)pyrrolo[1,2-f][1,2,4]triazin-2-yl)-N-(6-fluoropyridin-3-yl)-2-methylpyrrolidine-2-carboxamide, reference compound], the IC50 (as a rule, the point on the concentration scale where inhibition reaches its midpoint) in the test with HT-29 (HT29, colon adenocarcinoma (second entry of the table)) was below 1 µM; in the test with HT-29 (HT-29, colon cancer), below 10 µM; in the test with SW-620, 1 µM; in the test with LNCaP, below 10 µM; with HCC 1187, below 10 µM; in the test with A549, below 10 µM. Moreover, the IC50 with ZR-75-1 is above 100 µM; with BT-20, below 100 µM; in the test on HCT-15 it was below 100 µM; in the test on UACC 812, below 100 µM; in the test with MCF-7 it was 0.1 µM; in the test on T47D, below 10 µM. In addition, the IC50 in the test with COLO 205 is below 1 µM; in the test on HCT-116, 10 µM; with HL-60 (HL-60, promyelocytic leukemia), below 10 µM; in the test on HL-60 (Homo sapiens, HL-60, HL60, promyelocytic leukemia (second entry of the table)) it was below 10 µM; in the test with OVCAR-3, below 10 µM. Also, the entries for the “phosphorylated AKT levels normalized to actin levels (pAKT/actin)” value in [1] (10 nM compound 2 h) and in test [1] (100 nM compound 2 h) were 0.09 and 0.02, respectively.
